Data taken from patent publication US7192906B2, “Substituted pyrazole derivatives, production process thereof, and herbicide compositions containing the derivatives” (SDS Biotech K.K., priority 2001, dated 2007).

What was measured:
Format in all cases: in vivo
Chenopodium album [1] = experiment: Test Example 1 upland field foliage treatment; conditions: Table 4, upland field foliage treatment, index 0-5
Outline: (§1)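 Scores are visual 0–5 ratings of herbicidal effect or crop injury (0: under 10%; 5: 90% or more) taken 21 days after treatment. Plants grew from seed in upland soil for 14 days, then foliage received the compound as a water-diluted wettable powder at 1 kg/ha active ingredient.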

Digitaria adscendens [2] = experiment: Test Example 1 upland field foliage treatment; conditions: Table 4, upland field foliage treatment, index 0-5
Outline: as §1

Setaria viridis [3] = experiment: Test Example 1 upland field foliage treatment; conditions: Table 4, upland field foliage treatment, index 0-5
Outline: as §1

Stellaria media [4] = experiment: Test Example 1 upland field foliage treatment; conditions: Table 4, upland field foliage treatment, index 0-5
Outline: as §1

soybean (Glycine max) [5] = experiment: Test Example 1 upland field foliage treatment, crop phytotoxicity; conditions: Table 4, upland field foliage treatment, index 0-5
Outline: as §1

[6] = test system: wheat (Triticum aestivum); experiment: as above; conditions: Table 4, upland field foliage treatment, index 0-5
Outline: as §1

Chenopodium album [7] = experiment: Test Example 2 upland soil treatment; conditions: Table 5, upland soil treatment, index 0-5
Outline: (§2)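 Visual 0–5 grading of herbicidal effect or phytotoxicity, made 21 days after a single pre-emergence soil-surface application at 1 kg a.i./ha.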

Digitaria adscendens [8] = experiment: Test Example 2 upland soil treatment; conditions: Table 5, upland soil treatment, index 0-5
Outline: as §2

Setaria viridis [9] = experiment: Test Example 2 upland soil treatment; conditions: Table 5, upland soil treatment, index 0-5
Outline: as §2

Stellaria media [10] = experiment: Test Example 2 upland soil treatment; conditions: Table 5, upland soil treatment, index 0-5
Outline: as §2

soybean (Glycine max) [11] = experiment: Test Example 2 upland soil treatment, crop phytotoxicity; conditions: Table 5, upland soil treatment, index 0-5
Outline: as §2

[12] = test system: wheat (Triticum aestivum); experiment: as above; conditions: Table 5, upland soil treatment, index 0-5
Outline: as §2

Ammannia multiflora = experiment: Test Example 3 paddy field treatment; conditions: paddy field treatment, wettable powder, active ingredient 1 kg per hectare, 21st day after the dropping, index 0-5
Outline: (§3)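 Weed seeds sown in puddled paddy soil under 4 cm water, with two-leaf Koshihikari rice transplanted; 10 days later a wettable powder was applied to the water surface at 1 kg active ingredient/ha. Scored 21 days after application on a 0–5 scale (0 = <10%, 5 = ≥90% herbicidal effect or phytotoxicity).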

Echinochloa crusgalli = experiment: Test Example 3 paddy field treatment; conditions: paddy field treatment, wettable powder, active ingredient 1 kg per hectare, 21st day after the dropping, index 0-5
Outline: as §3

Monochoria vaginalis = experiment: Test Example 3 paddy field treatment; conditions: paddy field treatment, wettable powder, active ingredient 1 kg per hectare, 21st day after the dropping, index 0-5
Outline: as §3

Scirpus juncoides = experiment: Test Example 3 paddy field treatment; conditions: paddy field treatment, wettable powder, active ingredient 1 kg per hectare, 21st day after the dropping, index 0-5
Outline: as §3

Rice (Oryza sativa) = experiment: Test Example 3 paddy field treatment, crop phytotoxicity; conditions: paddy field treatment, transplanted rice Koshihikari, wettable powder, active ingredient 1 kg per hectare, 21st day after the dropping, index 0-5
Outline: as §3

CON=C(Cn1cc(C)c(-c2ccccc2)n1)C(=O)NC1CC1 [Compound 21, 2-methoxyimino-3-(phenyl-4-methyl-pyrazole)-1-yl-propanoic acid-N-cyclopropylamide]
Herbicidal activity CA: Chenopodium album (Chenopodium album [1]): 5 (herbicidal effect of not less than 90%, or phytotoxicity of 90% or more)
Herbicidal activity DA: Digitaria adscendens (Digitaria adscendens [2]): 5 (herbicidal effect of not less than 90%, or phytotoxicity of 90% or more)
Herbicidal activity SV: Setaria viridis (Setaria viridis [3]): 5 (herbicidal effect of not less than 90%, or phytotoxicity of 90% or more)
Herbicidal activity SM: Stellaria media (Stellaria media [4]): 5 (herbicidal effect of not less than 90%, or phytotoxicity of 90% or more)
Herbicidal activity (phytotoxicity) GM: Soybean (Glycine max) (soybean (Glycine max) [5]): 0 (herbicidal effect of not less than 0% and less than 10%, or phytotoxicity of 0% or more and less than 10%)
Herbicidal activity (phytotoxicity) TA: Wheat (Triticum aestivum) [6]: 0 (herbicidal effect of not less than 0% and less than 10%, or phytotoxicity of 0% or more and less than 10%)
Herbicidal activity CA: Chenopodium album (Chenopodium album [7]): 5 (herbicidal effect of not less than 90%, or phytotoxicity of 90% or more)
Herbicidal activity DA: Digitaria adscendens (Digitaria adscendens [8]): 4 (herbicidal effect of not less than 70% and less than 90%, or phytotoxicity of 70% or more and less than 90%)
Herbicidal activity SV: Setaria viridis (Setaria viridis [9]): 4 (herbicidal effect of not less than 70% and less than 90%, or phytotoxicity of 70% or more and less than 90%)
Herbicidal activity SM: Stellaria media (Stellaria media [10]): 5 (herbicidal effect of not less than 90%, or phytotoxicity of 90% or more)
Herbicidal activity (phytotoxicity) GM: Soybean (Glycine max) (soybean (Glycine max) [11]): 0 (herbicidal effect of not less than 0% and less than 10%, or phytotoxicity of 0% or more and less than 10%)
Herbicidal activity (phytotoxicity) TA: Wheat (Triticum aestivum) [12]: 0 (herbicidal effect of not less than 0% and less than 10%, or phytotoxicity of 0% or more and less than 10%)
Herbicidal activity AM (Ammannia multiflora): 5 (herbicidal effect of not less than 90%, or phytotoxicity of 90% or more)
Herbicidal activity EC (Echinochloa crusgalli): 5 (herbicidal effect of not less than 90%, or phytotoxicity of 90% or more)
Herbicidal activity MV (Monochoria vaginalis): 5 (herbicidal effect of not less than 90%, or phytotoxicity of 90% or more)
Herbicidal activity SJ (Scirpus juncoides): 5 (herbicidal effect of not less than 90%, or phytotoxicity of 90% or more)
Herbicidal activity OS (phytotoxicity to rice) (Rice (Oryza sativa)): 0 (herbicidal effect of not less than 0% and less than 10%, or phytotoxicity of 0% or more and less than 10%)
